The results in this text go back to paper PMC10065799, “High-throughput profiling of sequence recognition by tyrosine kinases and SH2 domains using bacterial peptide display” (eLife, 2023).

Experiment in all cases: pTyr-Var library bacterial peptide display kinase screen (enrichment scores)
The target of test [1] is c-Src kinase domain (Homo sapiens, UniProt P12931). In kind it is biochemical. To be noted: sheet "Src".
Test [2] deals with EPHB2 kinase domain. In kind it is biochemical, human. The settings on record: sheet EPHB2.
For test [3], the system named is Fer kinase domain. In kind it is biochemical, mouse. The settings on record: sheet "Fer".
Test [4] relates to EPHB1 kinase domain. The class given is biochemical, human. The settings on record: for Screen: sheet EPHB1, effect of the variant peptide relative to its reference peptide in the pTyr-Var library screen (enrichment scores); for Screen (variant relative to reference peptide, measured in the pTyr-Var library screen): sheet "EPHB1", variant seq vs reference seq, bacterial peptide display enrichment.

In test [5] the target is T1, c-Abl kinase domain (Mus musculus, UniProt P00520).
T1 sequence (P00520 242-493 limits assumed): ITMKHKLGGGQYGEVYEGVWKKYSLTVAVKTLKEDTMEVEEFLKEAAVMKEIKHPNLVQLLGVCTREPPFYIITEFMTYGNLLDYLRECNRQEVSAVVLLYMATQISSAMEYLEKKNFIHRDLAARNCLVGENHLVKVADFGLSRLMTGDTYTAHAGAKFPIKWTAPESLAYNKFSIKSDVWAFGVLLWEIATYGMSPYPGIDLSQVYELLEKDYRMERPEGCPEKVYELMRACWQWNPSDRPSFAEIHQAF
The class given is biochemical.

Setting [6] is: variant peptide versus its reference peptide in the pTyr-Var library screen.
The mark [7] stands for this setting: effect of variant peptide relative to its reference peptide in the pTyr-Var library screen (enrichment scores).
[8] abbreviates: value of the variant peptide against its reference peptide in the pTyr-Var library screen with Fer.
The mark [9] stands for this setting: effect of the variant relative to its reference peptide in the pTyr-Var library screen.
[10] abbreviates: effect of the variant peptide relative to its reference peptide in the pTyr-Var library screen.
Where [11] appears, read: fig5-data2, sheet "Abl", Screen for the variant/reference peptide pair, pTyr-Var library.
Setting [12] is: variant peptide relative to its reference peptide, pTyr-Var library screen enrichment.
[13] abbreviates: sheet "Abl", effect of variant peptide relative to its reference peptide in pTyr-Var library screen (enrichment).

In the case of ANARMYGVLPW [PLP1_Y207_D203N], the Screen in test [1] (setting [6]) was -0.7799; in test [2] (setting [7]), -1.895.

For AVISVYDLVAF [PSEN1_Y256_V261F], the Screen in test [1] (setting [6]) turned out to be 0.3764; in test [3] (setting [8]), 0.2851; in test [2] (setting [7]) it was 0.9519; in test [4], 0.6578.

Regarding DCVRMYELVHR [GLE1_Y135_G130D], the Screen was 0.7012 in test [3] (setting [8]), -0.0869 in test [2] (setting [7]) and -0.05786 in test [4].

Consider DLNATYCTIQG [U2SURP_Y634_R635C], for which the Screen in test [1] (setting [6]) is listed as 2.996; in test [2] (setting [9]), 3.025. Moreover, the “Screen (variant relative to reference peptide, measured in the pTyr-Var library screen)” value in test [4] worked out at 3.639.

On to EAEALYQTTFQ [KRT73_Y325_K328T], for which the results for the Screen in test [1] (setting [10]), in test [3] (setting [8]) and in test [2] (setting [7]) were 1.585, 3.654 and 1.238, respectively.

On to EDEGLYTVRVP [MYOM3_Y343_M344T], for which the Screen is given as -0.00676 in test [1] (setting [6]), -0.4796 in test [3] (setting [8]), -1.314 in test [2] (setting [7]) and -1.202 in test [4].

As to EEVPLYESATT [DCC_Y809_G805E], the Screen was -0.3858 in test [3] (setting [8]), -0.8416 in test [2] (setting [7]) and -0.9244 in test [4].

Regarding FFSSEYHCVGG [CTSC_Y345_Y347C_YF], the Screen in test [1] (setting [10]) is -0.4888; in test [5] (setting [11]), 0.5786; in test [2] (setting [7]) it was -0.8292; in test [4], -0.4883.

GEHSIYSTVNN [CD55_Y266_C267S]: the Screen is 0.6713 in test [1] (setting [10]), 1.521 in test [3] (setting [8]), 1.232 in test [2] (setting [7]) and 0.557 in test [4].

On to HDRGNYVQLNM [RECQL4_Y353_R355Q], for which the Screen is listed as 1.444 in test [2] (setting [7]) and 1.895 in test [4].

As to HICTAYKLVLA [DHCR24_Y190_E191K], the figures for the Screen in test [1] (setting [10]), in test [3] (setting [8]) and in test [2] (setting [7]) were -1.13, -2.51 and 0.4857, respectively.

For HLEKKYVHRDS [CSF1R_Y708_R710H], the Screen is -3.671 in test [1] (setting [10]), -0.7741 in test [3] (setting [8]), -2.097 in test [2] (setting [7]) and -1.586 in test [4].

Consider HNLDFYKQTTN [FGFR3_Y648_K650Q_YF], for which the Screen in test [1] (setting [10]) is given as -2.522; in test [3] (setting [8]), -2.104; in test [2] (setting [7]), -1.53; in test [4], -1.421.

Consider IGEGTYGVLFK [CDK2_Y15_V18L_YF], for which the values for the Screen in test [1] (setting [10]) and in test [2] (setting [7]) were 0.1027 and -0.7589, respectively.

With INPIIYAFVGG [CCR5_Y297_E302G], the Screen in test [1] (setting [10]) was 0.06385; in test [3] (setting [8]), -0.02742; in test [2] (setting [7]) it was 0.0201; in test [4] it was 0.07603.

For KSIQLYDTPFE [SHB_Y297_G293S_YF], the Screen in test [3] (setting [12]) is 0.2984; in test [5] (setting [13]), -1.035; in test [2] (setting [7]), 0.4609. Moreover, the “Screen (variant relative to reference peptide, measured in the pTyr-Var library screen)” value in test [4] came to 0.5631.

As for LICRRYLVMQR [IL3RA_Y328_V323L], the Screen in test [5] (setting [11]) is on record as 0.743; in test [2] (setting [7]), 1.326.

LLILEYAKFGS [RET_Y806_V804L_YF]: the Screen in test [2] (setting [7]) is -0.9388; in test [4], -0.7851.

As for LLRFLYFFVCS [SLC34A2_Y109_G106R], the Screen in test [1] (setting [6]) is -1.793; in test [2] (setting [7]), -1.518.

Take LQIPMYEVQWK [KIT_Y553_K550I]: the Screen is listed as 1.435 in test [1] (setting [10]), 1.505 in test [3] (setting [8]), 4.801 in test [2] (setting [7]) and 3.846 in test [4].

On to LRSELYSLIAR [PHIP_Y16_F17S], for which the figures for the Screen in test [1] (setting [6]), in test [3] (setting [8]) and in test [4] were 0.6047, 2.641 and 1.727, respectively.

LRSKQYLRNPP [SHC1_Y315_F312S]: the Screen is recorded as -0.3171 in test [5] (setting [13]) and -1.743 in test [2] (setting [7]).

Consider LSIQCYLRASD [HMGCS2_Y262_L266S], for which the Screen in test [3] (setting [8]) is listed as 1.097; in test [2] (setting [7]) it was 0.8903; in test [4], 1.205.

Consider MKVPLYETPAG [PGM5_Y358_V357L], for which the Screen in test [1] (setting [6]) is -1.534; in test [3] (setting [8]) it was 0.5188; in test [2] (setting [7]), 0.6636; in test [4], 0.8032.

As for QELRRYLESGV [MICA_Y194_K196E], the Screen in test [2] (setting [7]) is 0.3004.

For QNAGDYFDLFG [PTPN11_Y62_T59A_YF], the figures for the Screen in test [1] (setting [6]), in test [2] (setting [7]) and in test [4] were -0.3977, -0.3726 and -0.1063, respectively.

As to QNWELYSEGLG [CNKSR1_Y665_R662W], the Screen in test [1] (setting [10]) worked out at 2.202; in test [2] (setting [7]), 3.538; in test [4], 3.643.

As to QRALLYEDTLF [UNC13D_Y56_A59T_YF], the Screen was 0.3849 in test [1] (setting [6]), 0.1557 in test [3] (setting [12]) and 0.5663 in test [2] (setting [9]). The “Screen (variant relative to reference peptide, measured in the pTyr-Var library screen)” value in test [4] amounted to 0.5027.

As to RGESFYQDTMN [RARS_Y338_R341T], the Screen in test [3] (setting [12]) is reported as 1.596; in test [2] (setting [7]) it was 1.971; in test [4], 2.46.

RLGVTYEQALA [MAP2_Y996_G991R] came in with a Screen in test [2] (setting [7]) of 1.544.

Take RRIHSYRSHLW [VHL_Y112_G114S]: the Screen in test [1] (setting [6]) was -3.054; in test [5] (setting [13]) it was -2.663; in test [2] (setting [9]) it was -0.1154. In addition, the “Screen (variant relative to reference peptide, measured in the pTyr-Var library screen)” value in test [4] is on record as -1.453.

Consider SNNFIYTTLGV [FAM83B_Y639_K640T_YF], for which the figures for the Screen in test [1] (setting [10]), in test [3] (setting [8]) and in test [4] were 3.577, 2.656 and 2.305, respectively.

For TNEFEYDELIV [TGM1_Y136_D132N_YF], the Screen in test [2] (setting [9]) is recorded as -2.123.

Take WAFNLYDINKF [KCNIP3_Y174_D179Y_YF]: the Screen in test [1] (setting [10]) is on record as -0.1467; in test [3] (setting [8]), 1.417; in test [2] (setting [7]) it was 0.891; in test [4], 0.7978.
